Tests used:
[1] = biological target: T1, Replicase polyprotein 1ab (Severe acute respiratory syndrome coronavirus 2, UniProt P0DTD1); assay: Inhibition of SARS CoV-2 Main protease using MCA-AVLQSGFR-Lys(DNP)-Lys-NH2 peptide as substrate by fluorescence based analysis
[2] = Inhibition of SARS CoV N-terminal his-tagged Main protease using Dabcyl-KTSAVLQSGFRKME-Edan peptide as substrate by fluorescence based analysis; parameters: species or system Severe acute respiratory syndrome-related coronavirus
[3] = Binding affinity to SARS CoV N-terminal his-tagged Main protease using Dabcyl-KTSAVLQSGFRKME-Edan peptide as substrate by fluorescence based analysis; parameters: species or system Severe acute respiratory syndrome-related coronavirus
[4] = system: SARS-CoV-2; assay type: functional, organism-based, Vero E6; details: Severe acute respiratory syndrome coronavirus 2, Vero C1008
[5] = Cytotoxicity against cat CRFK cells assessed as reduction of cell viability; assay type: toxicity, cell-based, Felis catus
[6] = Cytotoxicity against mouse L929 cells assessed as reduction of cell viability; assay type: toxicity, cell-based
[7] = Cytotoxicity against human Huh-7 cells assessed as reduction of cell viability; assay type: toxicity, cell-based
[8] = system: SARS-CoV-2; assay type: functional, organism-based, Vero E6; details: Severe acute respiratory syndrome coronavirus 2, strain 107, Vero C1008
[9] = biological target: T1, Replicase polyprotein 1ab; assay: Inhibition of SARS CoV-2 Main protease incubated for 10 min by FRET assay

## Cc1ccc(-n2sc3ccccc3c2=O)cc1
[1]
  IC50: 330 nM

## O=C(NCc1ccco1)c1ccc(-n2sc3ccccc3c2=O)cc1
[1]
  IC50: 380 nM

## CCCNC(=O)c1ccc(-n2sc3ccccc3c2=O)cc1
[1]
  IC50: 230 nM

## Cn1sc2ccccc2c1=O
[1]
  IC50: 780 nM

## O=C(Oc1ccc(S(=O)(=O)c2ccc(OC(=O)C(Cl)=C(Cl)Cl)cc2)cc1)C(Cl)=C(Cl)Cl
[2]
  IC50: 900 nM

## CCN(CC)c1ccc(C(=O)On2nnc3ccccc32)cc1
[3]
  Ki: 11.1 nM

## C=CCn1sc2ccccc2c1=O
[1]
  IC50: 630 nM

## O=c1[nH]sc2ccccc12
[1]
  IC50: 660 nM

## CC(C)Cn1sc2ccccc2c1=O
[1]
  IC50: 480 nM

## O=C(O)c1ccc(-n2[se]c3ccccc3c2=O)cc1
[1]
  IC50: 130 nM

## COC(=O)c1ccc(-n2sc3ccccc3c2=O)cc1
[1]
  IC50: 360 nM

## O=C(O)Cn1[se]c2ccccc2c1=O
[1]
  IC50: 410 nM

## Nc1ccccc1-n1sc2ccccc2c1=O
[1]
  IC50: 130 nM

## CC(C)[C@H](NC(=O)[C@H](C)NC(=O)OCc1ccccc1)C(=O)N[C@@H](Cc1ccccc1)[C@@H](O)[C@H](O)[C@H](Cc1ccccc1)NC(=O)[C@@H](NC(=O)[C@H](C)NC(=O)OCc1ccccc1)C(C)C
[2]
  Ki: 600 nM

## O=c1c2ccccc2sn1CCO
[1]
  IC50: 410 nM

## O=c1c2ccccc2sn1-c1ccccc1
[1]
  IC50: 490 nM

## O=C(O)CCn1[se]c2ccccc2c1=O
[1]
  IC50: 350 nM

## O=C(On1nnc2ccccc21)c1cc2ccccc2[nH]1
[3]
  Ki: 12.3 nM

## O=C[C@H](C[C@@H]1CCNC1=O)NC(=O)[C@H](Cc1ccccc1)NC(=O)/C=C/c1ccc(Cl)cc1F
[4]
  IC50: 200 nM

## O=c1c2ccccc2[se]n1CCN1CCOCC1
[1]
  IC50: 240 nM

## O=c1c2ccccc2[se]n1CCO
[1]
  IC50: 650 nM

## CC(C)C[C@H](NC(=O)OCc1ccccc1)C(=O)N[C@H](C=O)C[C@@H]1CCNC1=O
[5]
  CC50: […]
[6]
  CC50: […]
[4]
  IC50: 70 nM
[7]
  CC50: […]

## CC(C)C[C@H](NC(=O)OCC1CCC(F)(F)CC1)C(=O)N[C@H](C=O)C[C@@H]1CCNC1=O
[5]
  CC50: > 100000 nM
[6]
  CC50: > 100000 nM
[7]
  CC50: > 100000 nM

## CN(C)c1ccc(/C=C/C(=O)N[C@@H](Cc2ccccc2)C(=O)N[C@H](C=O)C[C@@H]2CCNC2=O)cc1
[4]
  IC50: 500 nM

## O=c1c2ccccc2sn1Cc1ccco1
[1]
  IC50: 110 nM
  Ki: 78 nM

## CC(C)C[C@H](NC(=O)/C=C/c1ccccc1)C(=O)N[C@H](C=O)C[C@@H]1CCNC1=O
[4]
  IC50: 830 nM

## Nc1ccccc1C(=O)On1nnc2ccccc21
[3]
  Ki: 19.5 nM

## O=C[C@H](C[C@@H]1CCNC1=O)NC(=O)[C@@H]1[C@H]2CCC[C@H]2CN1C(=O)CCc1cc(F)cc(F)c1
[8]
  EC50: 5630 nM

## O=C[C@H](C[C@@H]1CCNC1=O)NC(=O)[C@@H]1[C@H]2CCC[C@H]2CN1C(=O)COc1ccc(Cl)c(Cl)c1
[8]
  EC50: 830 nM
[9]
  IC50: 30 nM

## CC(C)C[C@H](NC(=O)OC1CCCCC1)C(=O)N[C@H](C=O)C[C@@H]1CCNC1=O
[5]
  CC50: > 100000 nM
[6]
  CC50: > 100000 nM
[4]
  IC50: 3900 nM
[7]
  CC50: > 100000 nM

## COc1ccc(OCC(=O)N2C[C@H]3[C@@H]([C@H]2C(=O)N[C@H](C=O)C[C@@H]2CCNC2=O)C3(C)C)cc1OC
[8]
  EC50: 1730 nM
[9]
  IC50: 14.5 nM

## CC1(C)[C@@H]2[C@@H](C(=O)N[C@H](C=O)C[C@@H]3CCNC3=O)N(C(=O)COc3ccc(F)c(F)c3)C[C@@H]21
[8]
  EC50: 5570 nM
[9]
  IC50: 13.2 nM

## CNc1ccc(C(=O)On2nnc3ccccc32)cc1
[3]
  Ki: 12.1 nM

## CC(C)(C)OC(=O)NCn1[se]c2ccccc2c1=O
[1]
  IC50: 330 nM

## O=C(On1nnc2ccccc21)c1ccc2[nH]cnc2c1
[3]
  Ki: 22.9 nM

## CC1(C)[C@@H]2[C@@H](C(=O)N[C@H](C=O)C[C@@H]3CCNC3=O)N(C(=O)COc3cc(F)cc(F)c3)C[C@@H]21
[8]
  EC50: 1640 nM
[9]
  IC50: 18.5 nM

## O=C[C@H](C[C@@H]1CCNC1=O)NC(=O)[C@@H]1[C@H]2CCC[C@H]2CN1C(=O)c1cccnc1
[9]
  IC50: 748 nM

## CCCCNC(=O)c1ccc(-n2sc3ccccc3c2=O)cc1
[1]
  IC50: 910 nM

## COc1ccc(OC(C)C(=O)N2C[C@@H]3CCC[C@@H]3[C@H]2C(=O)N[C@H](C=O)C[C@@H]2CCNC2=O)cc1 (some centres not stated)
[9]
  IC50: 69.1 nM

## CN(C)c1ccc(CCC(=O)N2C[C@@H]3CCC[C@@H]3[C@H]2C(=O)N[C@H](C=O)C[C@@H]2CCNC2=O)cc1
[9]
  IC50: 378 nM

## O=C[C@H](C[C@@H]1CCNC1=O)NC(=O)[C@@H]1[C@H]2CCC[C@H]2CN1C(=O)COc1ccc(Cl)cc1
[8]
  EC50: 670 nM

## CC1(C)[C@@H]2[C@@H](C(=O)N[C@H](C=O)C[C@@H]3CCNC3=O)N(C(=O)CCc3cccc(F)c3)C[C@@H]21
[8]
  EC50: 2230 nM
[9]
  IC50: 16.5 nM

## O=C[C@H](C[C@@H]1CCNC1=O)NC(=O)[C@@H]1[C@H]2CCC[C@H]2CN1C(=O)CCc1cccc(F)c1
[8]
  EC50: 2970 nM

## CC1(C)[C@@H]2[C@@H](C(=O)N[C@H](C=O)C[C@@H]3CCNC3=O)N(C(=O)COc3ccc(Cl)cc3)C[C@@H]21
[8]
  EC50: 530 nM
[9]
  IC50: 19 nM

## CC(C)[C@H](NC(=O)[C@H](C)NC(=O)OCc1ccccc1)C(=O)N[C@@H](Cc1c[nH]c2ccccc12)[C@@H](O)[C@H](O)[C@@H](Cc1c[nH]c2ccccc12)NC(=O)[C@@H](NC(=O)[C@H](C)NC(=O)OCc1ccccc1)C(C)C
[2]
  Ki: 73 nM

## CCCC1CCC(OC(=O)N[C@@H](CC(C)C)C(=O)N[C@H](C=O)C[C@@H]2CCNC2=O)CC1 (some centres not stated)
[5]
  CC50: > 100000 nM
[6]
  CC50: > 100000 nM
[7]
  CC50: > 100000 nM

## O=c1c2ccccc2sn1CCCCc1ccccc1
[1]
  IC50: 410 nM

## O=C[C@H](C[C@@H]1CCNC1=O)NC(=O)[C@@H]1[C@H]2CCC[C@H]2CN1C(=O)CCc1ccc(F)c(F)c1
[8]
  EC50: 30500 nM
[9]
  IC50: 17.4 nM

## O=C[C@H](C[C@@H]1CCNC1=O)NC(=O)[C@@H]1[C@H]2CCC[C@H]2CN1C(=O)c1cc2ccccc2[nH]1
[9]
  IC50: 153 nM

## COc1ccc(OCC(=O)N2C[C@@H]3CCC[C@@H]3[C@H]2C(=O)N[C@H](C=O)C[C@@H]2CCNC2=O)cc1
[8]
  EC50: 24700 nM
[9]
  IC50: 36.2 nM

## CCCn1sc2ccccc2c1=O
[1]
  IC50: 730 nM

## O=C[C@H](C[C@@H]1CCNC1=O)NC(=O)[C@H](Cc1ccccc1)NC(=O)/C=C/c1cccc(Br)c1
[4]
  IC50: 700 nM

## COc1ccc(/C=C/C(=O)N2C[C@@H]3CCC[C@@H]3[C@H]2C(=O)N[C@H](C=O)C[C@@H]2CCNC2=O)c(OC)c1
[9]
  IC50: 196 nM

## O=C[C@H](C[C@@H]1CCNC1=O)NC(=O)[C@@H]1[C@H]2CCC[C@H]2CN1C(=O)COc1ccc2c(c1)OCCO2
[9]
  IC50: 93.5 nM

## CC1(C)[C@@H]2[C@@H](C(=O)N[C@H](C=O)C[C@@H]3CCNC3=O)N(C(=O)COc3ccc(Br)cc3Cl)C[C@@H]21
[8]
  EC50: 1180 nM
[9]
  IC50: 13.3 nM

## O=c1c2ccccc2[se]n1-c1cccc([N+](=O)[O-])c1
[1]
  IC50: 150 nM

## CN(C)c1ccc(C(=O)On2nnc3ccccc32)cc1
[3]
  Ki: 17.4 nM

## CC1(C)[C@@H]2[C@@H](C(=O)N[C@H](C=O)C[C@@H]3CCNC3=O)N(C(=O)c3ccc4ccccc4c3)C[C@@H]21
[9]
  IC50: 453 nM

## CN(C)c1ccc(/C=C/C(=O)N2C[C@@H]3CCC[C@@H]3[C@H]2C(=O)N[C@H](C=O)C[C@@H]2CCNC2=O)cc1
[9]
  IC50: 375 nM

## CCCCC1CCC(OC(=O)N[C@@H](CC(C)C)C(=O)N[C@H](C=O)C[C@@H]2CCNC2=O)CC1 (some centres not stated)
[5]
  CC50: 63300 nM
[6]
  CC50: 63300 nM
[4]
  IC50: 900 nM
[7]
  CC50: 63300 nM

## CC1(C)[C@@H]2[C@@H](C(=O)N[C@H](C=O)C[C@@H]3CCNC3=O)N(C(=O)COc3cccc(C(F)(F)F)c3)C[C@@H]21
[8]
  EC50: 17000 nM
[9]
  IC50: 43.3 nM

## COc1ccc(OCC(=O)N2C[C@H]3[C@@H]([C@H]2C(=O)N[C@H](C=O)C[C@@H]2CCNC2=O)C3(C)C)cc1F
[8]
  EC50: 4680 nM
[9]
  IC50: 37.2 nM

## O=C[C@H](C[C@@H]1CCNC1=O)NC(=O)[C@@H]1[C@H]2CCC[C@H]2CN1C(=O)/C=C/c1ccccc1
[9]
  IC50: 526 nM

## CC1(C)[C@@H]2[C@@H](C(=O)N[C@H](C=O)C[C@@H]3CCNC3=O)N(C(=O)COc3ccc(Cl)c(Cl)c3)C[C@@H]21
[8]
  EC50: 2080 nM
[9]
  IC50: 12.4 nM

## CC1(C)[C@@H]2[C@@H](C(=O)N[C@H](C=O)C[C@@H]3CCNC3=O)N(C(=O)COc3ccc4ccccc4c3)C[C@@H]21
[9]
  IC50: 52.1 nM

## CC1(C)[C@@H]2[C@@H](C(=O)N[C@H](C=O)C[C@@H]3CCNC3=O)N(C(=O)COc3ccc(Br)c(Cl)c3)C[C@@H]21
[9]
  IC50: 50.8 nM

## Cc1cc(Cl)ccc1OCC(=O)N1C[C@@H]2CCC[C@@H]2[C@H]1C(=O)N[C@H](C=O)C[C@@H]1CCNC1=O
[8]
  EC50: 1500 nM
[9]
  IC50: 19.7 nM

## O=C(On1nnc2ccccc21)c1cc2cc(F)ccc2[nH]1
[3]
  Ki: 13.8 nM

## CCCC1CCC(OC(=O)N[C@@H](CC(C)C)C(=O)N[C@@H](C[C@@H]2CCNC2=O)C(O)S(=O)(=O)O)CC1 (some centres not stated)
[5]
  CC50: > 100000 nM
[6]
  CC50: > 100000 nM
[7]
  CC50: > 100000 nM

## CC1(C)[C@@H]2[C@@H](C(=O)N[C@H](C=O)C[C@@H]3CCNC3=O)N(C(=O)COc3ccc(Cl)cc3Cl)C[C@@H]21
[8]
  EC50: 660 nM
[9]
  IC50: 13 nM

## O=C[C@H](C[C@@H]1CCNC1=O)NC(=O)[C@@H]1[C@H]2CCC[C@H]2CN1C(=O)c1cc2ccccn2n1
[9]
  IC50: 299 nM

## O=C[C@H](C[C@@H]1CCNC1=O)NC(=O)[C@@H]1[C@H]2CCC[C@H]2CN1C(=O)COc1ccc(Cl)cc1F
[8]
  EC50: 1650 nM
[9]
  IC50: 34.7 nM

## Cc1cc(-c2ccc(N/N=C3\C=Cc4c(S(=O)(=O)O)cc(S(=O)(=O)O)c(N)c4C3=O)c(C)c2)ccc1N/N=C1\C=Cc2c(S(=O)(=O)O)cc(S(=O)(=O)O)c(N)c2C1=O
[2]
  IC50: 200 nM
  Ki: 73 nM

## O=c1c2ccccc2sn1-c1ccc(Cl)cc1
[1]
  IC50: 390 nM

## O=c1c2ccccc2sn1Cc1ccccc1
[1]
  IC50: 170 nM
